Data published in US12201635B2, “Multi-target kinase inhibitor, pharmaceutical composition, and preparation method for multi-target kinase inhibitor and use thereof” (GUANGZHOU LIUSHUN BIOTECHNOLOGY CO., LTD., priority 2019, dated 2025).

Assays:
[1] = biological target: RET (Homo sapiens, UniProt P07949); test: Z'-LYTE kinase inhibition assay, RET; type: biochemical
Protocol: (§1) 1. The compounds to be detected were accurately weighed and added into DMSO to form stock solutions, which were then diluted to desired concentrations with a buffer to give solutions of the compounds to be detected.
(§2) 2. An RET or VEGFR3 or PDGFRA kinase solution, corresponding substrate solutions of Z′-LYTE, a buffer or a compound to be detected and ATP were added into a 384 reaction vessel, and reacted at room temperature for 1 h.
(§3) 3. To each well was added a fluorescence enhancer, followed by incubation at room temperature for 1 h.
(§4) 4. Data were read separately using a fluorescence analyzer.
(§5) 1. The relative inhibitory rate for each well was calculated according to a formula.
(§6) 2. Active samples were diluted and tested for relative inhibitory rates, and the inhibitory rates IC50 were calculated by plotting in the software Xlfit.

[2] = biological target: VEGFR3 (Homo sapiens, UniProt P35916); test: Z'-LYTE kinase inhibition assay, VEGFR3; type: biochemical
Sequence of VEGFR3 (P35916 25-1363): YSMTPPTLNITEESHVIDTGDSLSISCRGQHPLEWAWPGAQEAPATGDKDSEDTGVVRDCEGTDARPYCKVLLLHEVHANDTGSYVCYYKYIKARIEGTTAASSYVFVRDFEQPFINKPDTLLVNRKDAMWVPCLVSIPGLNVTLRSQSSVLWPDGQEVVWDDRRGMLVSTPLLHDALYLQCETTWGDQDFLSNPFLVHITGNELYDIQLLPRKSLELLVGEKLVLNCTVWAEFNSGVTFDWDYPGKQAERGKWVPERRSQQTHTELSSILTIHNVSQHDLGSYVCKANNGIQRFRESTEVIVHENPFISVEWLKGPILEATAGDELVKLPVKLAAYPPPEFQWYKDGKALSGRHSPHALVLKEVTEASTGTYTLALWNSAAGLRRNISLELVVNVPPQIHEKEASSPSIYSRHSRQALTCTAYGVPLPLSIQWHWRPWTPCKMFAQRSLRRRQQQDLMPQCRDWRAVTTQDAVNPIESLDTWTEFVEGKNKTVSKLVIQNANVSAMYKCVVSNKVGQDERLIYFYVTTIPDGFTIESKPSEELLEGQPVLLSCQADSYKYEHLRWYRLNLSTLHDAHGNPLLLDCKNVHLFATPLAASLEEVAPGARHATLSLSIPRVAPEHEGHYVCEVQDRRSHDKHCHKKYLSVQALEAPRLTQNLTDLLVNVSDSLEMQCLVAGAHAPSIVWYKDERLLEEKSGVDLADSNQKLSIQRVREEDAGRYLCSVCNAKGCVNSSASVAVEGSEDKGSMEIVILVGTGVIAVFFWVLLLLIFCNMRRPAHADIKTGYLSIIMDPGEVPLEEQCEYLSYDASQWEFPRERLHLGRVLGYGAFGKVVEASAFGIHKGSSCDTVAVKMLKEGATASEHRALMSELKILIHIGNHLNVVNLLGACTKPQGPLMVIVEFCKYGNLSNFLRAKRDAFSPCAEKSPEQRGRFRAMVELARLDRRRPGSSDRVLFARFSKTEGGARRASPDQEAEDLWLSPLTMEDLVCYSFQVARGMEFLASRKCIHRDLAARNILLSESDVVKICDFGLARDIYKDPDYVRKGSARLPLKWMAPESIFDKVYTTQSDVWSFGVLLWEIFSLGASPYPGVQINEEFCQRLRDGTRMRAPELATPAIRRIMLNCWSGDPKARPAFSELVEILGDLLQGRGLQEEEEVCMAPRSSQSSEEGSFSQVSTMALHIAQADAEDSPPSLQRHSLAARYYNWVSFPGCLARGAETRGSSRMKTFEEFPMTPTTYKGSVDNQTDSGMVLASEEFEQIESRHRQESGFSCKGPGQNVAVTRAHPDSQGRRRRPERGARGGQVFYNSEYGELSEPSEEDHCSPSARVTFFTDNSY
Protocol: as §1, §2, §3, §4, §5, §6

[3] = biological target: PDGFRA (Homo sapiens, UniProt P16234); test: Z'-LYTE kinase inhibition assay, PDGFRA; type: biochemical
Sequence of PDGFRA (P16234 24-1089): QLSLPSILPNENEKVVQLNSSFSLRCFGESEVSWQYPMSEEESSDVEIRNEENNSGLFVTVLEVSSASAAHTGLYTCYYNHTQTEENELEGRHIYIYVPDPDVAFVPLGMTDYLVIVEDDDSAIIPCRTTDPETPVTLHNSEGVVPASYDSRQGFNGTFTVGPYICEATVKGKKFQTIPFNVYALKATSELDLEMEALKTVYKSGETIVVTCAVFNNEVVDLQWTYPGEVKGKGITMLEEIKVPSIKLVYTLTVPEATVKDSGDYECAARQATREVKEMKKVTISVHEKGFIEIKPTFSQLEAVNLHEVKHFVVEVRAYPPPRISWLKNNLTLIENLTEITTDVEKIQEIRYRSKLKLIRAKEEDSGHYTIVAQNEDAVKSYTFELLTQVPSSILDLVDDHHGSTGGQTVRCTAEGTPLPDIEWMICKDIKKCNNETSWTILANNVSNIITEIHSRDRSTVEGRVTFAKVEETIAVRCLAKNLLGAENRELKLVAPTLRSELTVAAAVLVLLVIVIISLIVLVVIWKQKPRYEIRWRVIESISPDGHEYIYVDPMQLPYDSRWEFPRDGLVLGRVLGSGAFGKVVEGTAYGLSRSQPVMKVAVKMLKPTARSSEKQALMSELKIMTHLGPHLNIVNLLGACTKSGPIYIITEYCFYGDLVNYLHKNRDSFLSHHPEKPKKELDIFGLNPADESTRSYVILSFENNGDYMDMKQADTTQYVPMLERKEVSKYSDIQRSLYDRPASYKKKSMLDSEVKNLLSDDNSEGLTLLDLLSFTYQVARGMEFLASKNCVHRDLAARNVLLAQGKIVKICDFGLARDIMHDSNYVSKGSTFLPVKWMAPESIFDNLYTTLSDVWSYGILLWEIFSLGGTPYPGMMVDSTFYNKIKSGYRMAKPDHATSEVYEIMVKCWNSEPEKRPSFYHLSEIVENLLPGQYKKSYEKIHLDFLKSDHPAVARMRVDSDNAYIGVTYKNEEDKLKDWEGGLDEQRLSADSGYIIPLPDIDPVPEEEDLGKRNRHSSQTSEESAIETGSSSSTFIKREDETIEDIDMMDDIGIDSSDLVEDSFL
Protocol: as §1, §2, §3, §4, §5, §6

[4] = test system: SMMC-7721 hepatoma; test: In vivo anti-tumor activity, nude mouse tumor model of SMMC-7721 liver cancer; details: SMMC-7721 liver cancer mice
Source text: (§7) In this example, the in vivo anti-tumor activity (liver cancer/esophageal cancer) of the multi-target kinase inhibitor [Compound (I-1)] was investigated according to the requirements in Guidelines for Pharmacodynamics of Anti-tumor Drugs. The experimental procedures and results are as follows:
(§8) Tumor models of nude mice were established using […] heptoma cells and KYSE 410 esophageal cancer cells that meet modeling conditions. The modeled mice were divided into 5 groups: a model group, a Compound (I-1) 5 mg/kg group, a Compound (I-1) 10 mg/kg group, a Compound (I-1) 20 mg/kg group, and a positive control group (sorafenib or cabozantinib). Administration was performed from the day of grouping that was counted as day 1 and for 21 consecutive days, and the 21st day was counted as day21. Tumor volumes were measured twice a week during the period of administration for statistical test.

[5] = test system: KYSE 410 esophageal cancer; test: In vivo anti-tumor activity, nude mouse tumor model of KYSE 410 esophageal cancer; details: KYSE 410 esophageal cancer mice
Source text: as §7, §8

[6] = 5, 10 and 20 mg/kg, 21 consecutive days, day21 ANOVA P<0.0001
[7] = 10 and 20 mg/kg, positive control sorafenib or cabozantinib

Sequence of RET (P07949 29-1114): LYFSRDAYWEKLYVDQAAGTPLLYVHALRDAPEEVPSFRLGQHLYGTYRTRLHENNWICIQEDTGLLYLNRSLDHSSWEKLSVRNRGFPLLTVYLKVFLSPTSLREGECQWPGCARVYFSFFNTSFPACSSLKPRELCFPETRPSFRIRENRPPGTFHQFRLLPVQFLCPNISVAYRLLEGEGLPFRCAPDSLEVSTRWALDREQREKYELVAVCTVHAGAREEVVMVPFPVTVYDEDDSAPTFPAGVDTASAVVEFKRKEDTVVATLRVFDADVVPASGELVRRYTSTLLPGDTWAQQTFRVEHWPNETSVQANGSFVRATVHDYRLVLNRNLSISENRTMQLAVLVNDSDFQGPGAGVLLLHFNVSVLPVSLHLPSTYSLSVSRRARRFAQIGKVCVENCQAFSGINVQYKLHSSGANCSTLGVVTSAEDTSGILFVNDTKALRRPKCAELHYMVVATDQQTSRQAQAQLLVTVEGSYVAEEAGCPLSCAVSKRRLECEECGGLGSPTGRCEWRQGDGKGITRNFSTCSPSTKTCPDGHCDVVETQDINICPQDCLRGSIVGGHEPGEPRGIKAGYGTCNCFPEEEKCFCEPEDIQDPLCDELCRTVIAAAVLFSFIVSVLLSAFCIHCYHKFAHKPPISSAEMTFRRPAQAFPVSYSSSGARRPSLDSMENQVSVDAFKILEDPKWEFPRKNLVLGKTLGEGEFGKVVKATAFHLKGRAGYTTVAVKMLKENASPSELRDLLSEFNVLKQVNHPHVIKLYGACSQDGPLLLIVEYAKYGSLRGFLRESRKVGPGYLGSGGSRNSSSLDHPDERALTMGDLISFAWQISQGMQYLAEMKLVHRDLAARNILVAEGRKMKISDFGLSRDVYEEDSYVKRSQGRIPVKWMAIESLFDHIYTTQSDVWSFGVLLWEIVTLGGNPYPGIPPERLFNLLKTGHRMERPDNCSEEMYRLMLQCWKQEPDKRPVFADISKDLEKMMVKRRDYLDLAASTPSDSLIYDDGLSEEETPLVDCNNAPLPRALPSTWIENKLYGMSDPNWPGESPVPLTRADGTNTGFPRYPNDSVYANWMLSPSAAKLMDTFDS

| Compound | IC50 [1] [nM] | IC50 [2] [nM] | IC50 [3] [nM] | Tumor volume compared with the model group [4, 6] | Tumor volume compared with the positive control group [4, 7] | Tumor volume compared with the model group [5, 6] | Tumor volume compared with the positive control group [5, 7] |
| --- | --- | --- | --- | --- | --- | --- | --- |
| COc1cc2ncnc(Oc3ccc(NC(=O)NC4CC4)cc3)c2cc1OC [Compound I-1] | 12 | 30 | 60 | lower tumor volumes | lower tumor volumes | lower tumor volumes | lower tumor volumes |
| COc1cc2ncnc(Oc3ccc(NC(=O)NC4CCC4)cc3)c2cc1OC [Compound I-2] | 37 | 16 | 308 | – | – | – | – |
| COc1cc2ncnc(Oc3ccc(NC(=O)NC4CCCC4)cc3)c2cc1OC [Compound I-3] | 85 | 9 | 62 | – | – | – | – |
| C=CNC(=O)Nc1ccc(Oc2ncnc3cc(OC)c(OC)cc23)cc1 [Compound I-4] | 26 | 65 | 52 | – | – | – | – |
| COc1cc2ncnc(Oc3ccc(NC(=O)N4CCCC4)cc3)c2cc1OC [Compound I-5] | 102 | 213 | 124 | – | – | – | – |
| COc1cc2ncnc(Oc3ccc(NC(=O)N4CCCCC4)cc3)c2cc1OC [Compound I-6] | 251 | 328 | 632 | – | – | – | – |
